{"source": "patent US8105798B2", "about": "“Cytoplasmic activity of retinoid X receptor and its regulation by ligands and dimerization” (The Burnham Institute, priority 2003, dated 2012)", "key": {"TR3": {"system": "TR3", "assay": "subcellular localization of TR3 and RXRα/TR3 heterodimer by confocal microscopy", "type": "cell-based", "conditions": "75 μM", "procedure": "FIG. 10 is a series of confocal microscope images of immunostained PC12 cells illustrating that binding of 15d-PGJ2 to RXRα induces translocation of RXRα homodimer/monomer or TR3/RXRα heterodimer from the nucleus to the cytoplasm. Expression vectors for Flag-RXRα and GFP-TR3 were transfected into PC12 cells alone or together. Cells were then treated with 15d-PGJ2 (5.micro.M) for 3 hr, then immunostained with anti-Flag antibody to detect RXRα Flag-RXRα and GFP-TR3 were visualized by confocal microscopy, and their images merged.\nIn the absence of TPA, both TR3 and RXRα reside mainly in the nucleus. […] (FIG. 2).\nBecause RXR heterodimerizes with TR3, Inventor examined the effect of 15d-PGJ2 on TR3 subcellular localization in PC12 phaeochromocytoma cells.\nEither TR3 alone, RXRα alone or TR3 and RXRα was transfected into HEK293T cells. Cells were then treated with sulindac sulfide (75.micro.M) for 6 hr. RXR.alpha and TR3 localization was determined by immunostaining, and cells were also stained by DAPI. […] Thus, the effect of sulindac sulfide on the cytoplasmic localization of TR3 depends on RXRα expression, probably due to their heterodimerization. Thus, sulindac sulfide induces nuclear export of RXRα and RXRα/TR3 heterodimer. (FIG. 14b).\nThe effect of sulindac sulfide on mitochondrial targeting of RXRα and TR3 was determined by treating H460 lung cancer cells with 75 micro.M sulindac sulfide for 6 hours and visualization of the cellular localization of these proteins by immunostaining. A two stage detection system was used having either anti-RXR or anti TR3 as a first stage (Santa Cruz Biotechnology and Abgent, respectively). In the absence of treatment, both RXRα and TR3 were found mainly in the nucleus."}, "RXR.alpha": {"biological_target": "T1, RXR.alpha (Homo sapiens, UniProt P19793)", "T1 sequence (P19793 1-462)": "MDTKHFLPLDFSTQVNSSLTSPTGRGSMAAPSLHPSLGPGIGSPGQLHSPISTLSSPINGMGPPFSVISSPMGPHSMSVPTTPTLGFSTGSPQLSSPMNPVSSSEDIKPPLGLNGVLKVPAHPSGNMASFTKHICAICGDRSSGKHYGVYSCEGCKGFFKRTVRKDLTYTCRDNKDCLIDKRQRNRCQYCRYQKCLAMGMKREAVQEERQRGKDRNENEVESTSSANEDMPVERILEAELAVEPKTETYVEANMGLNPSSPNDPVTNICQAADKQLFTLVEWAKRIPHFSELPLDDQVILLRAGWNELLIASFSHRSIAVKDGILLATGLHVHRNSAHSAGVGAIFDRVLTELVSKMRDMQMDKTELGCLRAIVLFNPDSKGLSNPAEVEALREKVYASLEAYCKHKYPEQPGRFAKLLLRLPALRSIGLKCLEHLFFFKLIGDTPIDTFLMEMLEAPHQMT", "assay": "isothermal titration calorimetry (ITC)", "type": "binding", "conditions": "data not shown", "procedure": "ITC is a thermodynamic technique for monitoring the binding reaction of two components. When a protein binds a ligand, heat is either generated or absorbed, and quantitation of this heat allows very accurate determination of the binding dissociation constant (kD), reaction stoichiometry (n), enthalpy and entropy. Heat effects a small as 0.2.micro.cal can be measured and titrations can be done on as little as 1 ml of a dilute solution. (See generally, Pierce, M. M., Raman, C. S., and Nall, B. T., Methods, (1999) 19: 213-21)"}, "[1]": {"system": "CV-1, MGC80-3, HEK293T and HCT116 cells", "assay": "apoptosis determined by DAPI staining", "type": "cell-based", "conditions": "75 μM, 24 hr", "procedure": "To determine the involvement of RXRα in sulindac sulfide-induced apoptosis of cancer cells, its effect on apoptosis of CV-1 cells (available from American Type Cell Culture, Manassas, Va., as accession number CCL-70) in the absence or presence of RXRα transfection was evaluated. FIG. 13a. RXR was cloned into a pGFP.C2 vector (GenBank Accession #: U19281) according to the procedure of Li et al., Science 289, 1159-1164 (2000). CV-1 cells were transfected with or without RXRα prior to treatment with sulindac sulfide (75.micro.M) for 24 hr. […] Louis, Mo., as catalogue number D9542), and the presence of nuclear fragmentation and/or chromatin condensation is an indicator of apoptosis. […] The requirement of RXRαwas also examined using RXRα siRNA SEQ ID No.: 12 approach. MGC80-3 cells, HEK293T (ATCC, accession number CCL-1573) and HCT116 (ATCC, accession number CCL-247) cell lines were transfected with RXRα siRNA or control siRNA using oligofectamine (from Invitrogen, Corp). Cell samples from each cell line were lysed and the cell extracts were prepared by immunoblotting to determine RXRα expression. Cells transfected with RXR.alpha siRNA or control siRNA were treated with sulindac sulfide (75.micro.M) for 24 hr, and apoptosis was determined by DAPI staining."}, "RXRα LBD protein": {"biological_target": "T2, RXRα LBD protein (Homo sapiens, UniProt P19793)", "T2 construct": "made in house; host or cells: E. coli BL21 (pET vector, Novagen)", "T2 sequence (P19793 224-462)": "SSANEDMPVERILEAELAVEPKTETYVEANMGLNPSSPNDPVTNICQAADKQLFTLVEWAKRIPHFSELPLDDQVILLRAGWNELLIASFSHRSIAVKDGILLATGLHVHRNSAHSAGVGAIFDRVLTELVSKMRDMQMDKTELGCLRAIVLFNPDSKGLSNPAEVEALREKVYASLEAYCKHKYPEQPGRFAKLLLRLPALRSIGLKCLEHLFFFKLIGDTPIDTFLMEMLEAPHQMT", "assay": "sensitivity of RXRα protein to chymotrypsin digestion", "type": "biochemical", "conditions": "100 μM sulindac sulfide", "procedure": "(FIG. 12b). LBD protein was incubated in the absence (DMSO) or presence of sulindac sulfide (100.micro.M) and then subjected to digestion by chymotrypsin for 30 min. Briefly, SEQ ID No.: 11 was cloned into the pET vector system available from Novagen and the recombinant vector was transformed into and expressed in BL21 cells. Digested reactions were separated by SDS-PAGE and visualized by Commassie blue staining. 35^S RXR protein was incubated for 30 minutes at room temperature in the presence or absence of 100.micro.M sulindac sulfide. Chymotrypsin was then added to a series of labeled protein reactions at final concentrations of 0, 37.5, 75, 150 and 300.micro.g per ml, and digestion proceeded for 20 minutes."}, "[2]": {"system": "H460, MGC80-3 and LNCaP cells", "assay": "cytochrome c release by immunostaining", "type": "cell-based", "conditions": "75 μM, 6 hr", "procedure": "To uncover the consequence of RXRα mitochondrial localization induced by sulindac sulfide, H460, MGC80-3 and LnCap cells were treated with or without sulindac sulfide and RXRα mitochondrial and cytochrome c release were determined by immunostaining, as described above. Cells were treated with or without sulindac sulfide (75.micro.M) for 6 hr. Cells were then stained with RXRα, Hsp6, and cytochrome c (cyt c)."}}, "data": [{"smiles": "CSc1ccc(/C=C2/C(C)=C(CC(=O)O)c3cc(F)ccc32)cc1", "note": "[sulindac sulfide]", "values": [{"measurement": "mitochondrial targeting of RXRα and TR3 (Hsp60)", "setting": "TR3; H460 lung cancer cells, 6 hours", "result": "extensive co-localization of RXRα and TR3 with Hsp60"}, {"measurement": "TR3 and RXRα localization, co-transfected", "setting": "TR3; HEK293T cells, 6 hr", "result": "both TR3 and RXRα are found in the cytoplasm"}, {"measurement": "TR3 localization, TR3 transfected alone", "setting": "TR3; HEK293T cells, 6 hr", "result": "does not affect the nuclear localization of TR3"}, {"measurement": "binding to RXR.alpha by ITC", "setting": "RXR.alpha", "result": "confirmed the binding"}, {"measurement": "apoptosis, cells transfected with RXRα", "setting": "[1]; CV-1 cells, DAPI staining", "result": "extensive apoptosis"}, {"measurement": "apoptosis in cells transfected with RXRα siRNA versus control siRNA", "setting": "[1]; MGC80-3, HEK293T and HCT116 cells", "result": "significant reduction of apoptosis"}, {"measurement": "sensitivity of RXRα protein to chymotrypsin", "setting": "RXRα LBD protein", "result": "modulation of sensitivity of RXRα protein to chymotrypsin"}, {"measurement": "cytochrome c release", "setting": "[2]", "result": "massively released"}]}]}
